This note sets out measurements from ChEMBL document CHEMBL1201862, “PubChem BioAssay data set” (2004).

The source made the active and inactive calls.

The nature of test [1]: inhibitors of HIV Env-driven cell fusion, dose response, cherry-pick (AID 652057). It counts as functional, cell-based.
Test [2] in a line: ZM109 Env clade C HIV-1 fusion inhibitors, dose response, HeLa effector, CEM target cells, luciferase, cherry-pick (AID 652058). It counts as functional, cell-based.
Test [3] is described as follows: inhibitors of clade B AD8 Env fusion, dose response, cell-based, cherry-pick (AID 652062).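 Note: luciferase signal from cell-cell fusion driven by HIV-1 clade B AD8 Env; potency is for inhibitors of fusion seen as a drop in luminescence.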 It counts as functional.
Test [4] is described as follows: P. falciparum Dd2 growth inhibitors, dose response, SYBR Green, cherry-picked samples (AID 1159567). It counts as functional, cell-based.
A short description of test [5]: HepG2 cell cytotoxicity, dose response, cytotoxicity control, cherry-picked samples (AID 1159577). It counts as functional, cell-based.
Test [6] has as its system HEK293. Kind of test: NOD1 signaling inhibitors, primary screen, cell-based, luminescence, uHTS (AID 1578). It counts as functional. The note with it: Homo sapiens.
Test [7] relates to BJ. Kind of test: cytotoxicity toward BJ-TERT fibroblasts, dose response, cell-based, RAS-independent, luminescence (AID 1933). It counts as functional. The conditions noted are these: Homo sapiens.
Test [8] deals with Luciferin 4-monooxygenase (Photinus pyralis, UniProt P08659). In words: Counter Screen for Luciferase-based Assay Positives. [Related pubchem assays: 620, 618, 411 ]. A general note: A counterscreen serves to expose hits that act by an unwanted route or on another target.
Chain of Luciferin 4-monooxygenase (P08659 whole entry): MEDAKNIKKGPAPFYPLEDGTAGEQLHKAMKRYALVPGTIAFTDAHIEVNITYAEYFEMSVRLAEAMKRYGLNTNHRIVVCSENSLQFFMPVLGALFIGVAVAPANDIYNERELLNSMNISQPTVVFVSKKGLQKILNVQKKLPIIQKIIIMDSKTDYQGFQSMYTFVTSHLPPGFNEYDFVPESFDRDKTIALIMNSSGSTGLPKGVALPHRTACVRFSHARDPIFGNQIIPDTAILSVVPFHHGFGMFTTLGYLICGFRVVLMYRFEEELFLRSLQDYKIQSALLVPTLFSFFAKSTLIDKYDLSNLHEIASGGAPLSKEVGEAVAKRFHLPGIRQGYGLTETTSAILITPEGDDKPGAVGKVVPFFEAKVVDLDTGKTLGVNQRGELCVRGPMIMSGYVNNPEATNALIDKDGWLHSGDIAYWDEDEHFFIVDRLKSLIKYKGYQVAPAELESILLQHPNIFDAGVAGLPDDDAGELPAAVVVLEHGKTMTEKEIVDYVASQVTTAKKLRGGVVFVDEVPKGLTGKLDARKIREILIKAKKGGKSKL
The subject of test [9] is HEK293. Kind of test: cells. It counts as functional, cell-based. The note with it: Homo sapiens.
In test [10] the test system is BJ. Kind of test: cells. The note with it: Homo sapiens. It counts as functional, cell-based.
Test [11] concerns HEK293. Kind of test: cells. It counts as functional, cell-based. The note with it: Homo sapiens. The source holds these as a separate data set.
Test [12] deals with T1, E3 ubiquitin-protein ligase XIAP (Homo sapiens, UniProt P98170). In words: Counter Screen using XIAP-Bir3 for Chemical Antagonists of Bir1/2 domains of IAP-family anti-apoptotic proteins. [Related pubchem assays (depositor defined):AID1018, AID1449, AID1514, AID1638, AID1749, AID1750, AID488957, AID488963].
T1 sequence (P98170 whole entry): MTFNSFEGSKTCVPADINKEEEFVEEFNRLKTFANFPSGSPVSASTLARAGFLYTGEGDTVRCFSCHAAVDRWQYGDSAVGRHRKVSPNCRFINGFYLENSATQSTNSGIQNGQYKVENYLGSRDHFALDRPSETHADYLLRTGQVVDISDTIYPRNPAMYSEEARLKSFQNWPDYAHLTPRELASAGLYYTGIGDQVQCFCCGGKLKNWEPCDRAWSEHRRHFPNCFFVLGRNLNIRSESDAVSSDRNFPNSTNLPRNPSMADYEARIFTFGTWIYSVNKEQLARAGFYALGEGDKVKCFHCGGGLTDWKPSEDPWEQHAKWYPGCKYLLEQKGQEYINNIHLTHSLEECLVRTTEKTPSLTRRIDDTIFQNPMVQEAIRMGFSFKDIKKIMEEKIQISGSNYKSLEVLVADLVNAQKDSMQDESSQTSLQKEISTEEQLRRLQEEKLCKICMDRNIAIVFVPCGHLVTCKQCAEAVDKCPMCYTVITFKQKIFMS
In test [13] the target is T1, E3 ubiquitin-protein ligase XIAP. In words: XIAP antagonists, biochemical, IAP family, fluorescence polarization (AID 1018). It counts as functional.
Test [14] has as its system HEK293. In words: NOD2 signaling inhibitors in MDP-stimulated cells, cell-based, uHTS, luminescence (AID 2001). It counts as functional. The note with it: Homo sapiens.
The nature of test [15]: microbe, parasite or virus in culture. The conditions noted are these: Mycobacterium tuberculosis. It counts as functional.
Another test deals with HT-1080. In words: cytotoxicity in HT1080 fibrosarcoma cells, cell-based, fluorescence readout (AID 620). It counts as functional. The conditions noted are these: Homo sapiens.
Test [16] has as its system BJ. Kind of test: cytotoxicity toward BJ-TERT-LT-ST fibroblasts, dose response, cell-based, RAS-independent, luminescence (AID 1935).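 Note: BJ fibroblasts immortalized with TERT plus LT and ST oncogenes.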 It counts as functional. The conditions noted are these: Homo sapiens.
Test [17] is described as follows: cytotoxicity toward DRD oncogenic fibroblasts, dose response, cell-based, non-viral oncogenic, luminescence (AID 1934). It counts as functional. The note with it: Homo sapiens.
For test [18], the target named is T2, Replicative DNA helicase DnaB (Mycobacterium tuberculosis, UniProt P9WMR3).
T2 sequence (P9WMR3 whole entry): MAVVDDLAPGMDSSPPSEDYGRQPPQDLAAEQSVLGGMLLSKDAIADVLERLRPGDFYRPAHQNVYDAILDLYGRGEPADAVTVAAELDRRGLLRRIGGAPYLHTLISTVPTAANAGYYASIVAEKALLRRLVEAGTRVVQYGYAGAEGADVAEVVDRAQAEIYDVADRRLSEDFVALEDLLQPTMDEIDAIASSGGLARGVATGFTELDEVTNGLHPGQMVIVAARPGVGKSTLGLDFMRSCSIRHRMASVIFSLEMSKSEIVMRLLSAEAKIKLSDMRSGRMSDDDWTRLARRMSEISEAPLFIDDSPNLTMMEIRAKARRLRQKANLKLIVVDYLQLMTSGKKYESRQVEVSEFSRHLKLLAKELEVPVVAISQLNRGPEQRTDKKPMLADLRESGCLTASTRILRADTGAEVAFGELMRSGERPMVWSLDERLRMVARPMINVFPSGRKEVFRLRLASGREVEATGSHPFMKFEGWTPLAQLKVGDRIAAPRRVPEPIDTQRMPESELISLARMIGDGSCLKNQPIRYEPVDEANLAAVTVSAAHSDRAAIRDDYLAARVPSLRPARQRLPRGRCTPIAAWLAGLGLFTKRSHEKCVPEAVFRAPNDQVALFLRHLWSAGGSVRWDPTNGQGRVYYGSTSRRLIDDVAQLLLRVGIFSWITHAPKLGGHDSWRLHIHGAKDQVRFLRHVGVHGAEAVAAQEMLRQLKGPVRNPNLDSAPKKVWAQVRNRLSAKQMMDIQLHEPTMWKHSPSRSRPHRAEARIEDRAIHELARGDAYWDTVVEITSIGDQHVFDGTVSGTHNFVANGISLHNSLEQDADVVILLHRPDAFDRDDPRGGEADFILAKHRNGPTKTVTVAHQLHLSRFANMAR
In words: DnaB intein splicing inhibitors, dose response, biochemical, cell-free fluorescence (AID 449749). It counts as functional.

The test system of test [19] is BJ. In words: cytotoxicity toward Ras-transformed BJeLR fibroblasts, dose response, cell-based, alamar blue fluorescence, cherrypicked samples (AID 2631).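 Note: confirmatory dose-response assay in RAS-dependent BJ fibroblasts engineered with TERT, LT and ST, with cytotoxicity read by fluorescence.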 The note with it: Homo sapiens. It counts as functional. Background: The colour change of resazurin is a common sign of viable cells or microbes.
In a further test the target is T3, Protein RecA (Mycobacterium tuberculosis, UniProt P9WHJ3).
T3 sequence (P9WHJ3 whole entry): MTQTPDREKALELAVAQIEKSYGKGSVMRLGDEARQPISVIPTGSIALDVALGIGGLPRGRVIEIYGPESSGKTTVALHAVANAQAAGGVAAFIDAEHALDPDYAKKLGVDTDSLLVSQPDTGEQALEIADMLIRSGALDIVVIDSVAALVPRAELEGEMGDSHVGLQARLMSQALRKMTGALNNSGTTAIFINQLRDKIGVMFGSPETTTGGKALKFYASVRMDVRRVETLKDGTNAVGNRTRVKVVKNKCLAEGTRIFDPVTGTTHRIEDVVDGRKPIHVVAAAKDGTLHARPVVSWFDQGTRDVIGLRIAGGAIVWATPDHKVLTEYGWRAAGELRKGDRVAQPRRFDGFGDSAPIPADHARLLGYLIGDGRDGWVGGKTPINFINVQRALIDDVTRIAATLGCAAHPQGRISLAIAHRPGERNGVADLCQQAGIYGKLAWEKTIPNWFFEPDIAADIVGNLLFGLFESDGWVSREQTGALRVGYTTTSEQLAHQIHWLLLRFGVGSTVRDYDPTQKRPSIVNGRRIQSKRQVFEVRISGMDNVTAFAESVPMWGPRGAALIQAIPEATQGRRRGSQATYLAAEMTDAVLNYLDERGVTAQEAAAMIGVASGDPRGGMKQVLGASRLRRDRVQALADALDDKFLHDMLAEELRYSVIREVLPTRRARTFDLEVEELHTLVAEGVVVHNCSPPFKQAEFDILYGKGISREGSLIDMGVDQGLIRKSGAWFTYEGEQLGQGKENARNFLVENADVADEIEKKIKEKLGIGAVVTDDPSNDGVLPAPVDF
In words: Fluorescence Cell-Free Homogeneous Dose Retest to Identify Inhibitors of RecA-Intein Splicing Activity. [Related pubchem assays (depositor defined):AID2097, AID2223, AID489010, AID492950]. It counts as functional.

Test [20] can be described thus: inhibitors of PGC1a acetylation in cells, dose response, cell-based, cherry-picked samples (AID 720514).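 Note: potency may reflect raised or lowered acetylation signal.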 It counts as functional.
A short description of test [21]: P. falciparum 3D7-ScDHODH growth inhibitors, dose response, SYBR Green, dry powder samples (AID 1159570).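 Note: parasite growth measured after 72 hours of compound exposure.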 It counts as functional, cell-based.
The nature of test [22]: HepG2 cell cytotoxicity, dose response, cytotoxicity control, plate reader, dry powder samples (AID 1159569).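 Note: inhibitor potency with signal falling toward the positive control level.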 It counts as functional, cell-based.
Test [23] in a line: P. falciparum Dd2 growth inhibitors, dose response, SYBR Green, dry powder samples (AID 1159566).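 Note: potency for growth inhibition with lower SYBR green DNA signal.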 It counts as functional, cell-based.
Test [24] is described as follows: P. falciparum ATP4 D1247Y mutant growth inhibitors, dose response, NITD609-resistant line, SYBR Green, dry powder (AID 1159571).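 Note: parasites synchronized at ring stage by sorbitol before testing.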 It counts as functional, cell-based.
Test [25] deals with Disintegrin and metalloproteinase domain-containing protein 17 (Homo sapiens, UniProt P78536). In words: exosite inhibitors of ADAM17, dose response, biochemical (AID 743260).
Chain of Disintegrin and metalloproteinase domain-containing protein 17 (P78536 whole entry, the tested form may be a part): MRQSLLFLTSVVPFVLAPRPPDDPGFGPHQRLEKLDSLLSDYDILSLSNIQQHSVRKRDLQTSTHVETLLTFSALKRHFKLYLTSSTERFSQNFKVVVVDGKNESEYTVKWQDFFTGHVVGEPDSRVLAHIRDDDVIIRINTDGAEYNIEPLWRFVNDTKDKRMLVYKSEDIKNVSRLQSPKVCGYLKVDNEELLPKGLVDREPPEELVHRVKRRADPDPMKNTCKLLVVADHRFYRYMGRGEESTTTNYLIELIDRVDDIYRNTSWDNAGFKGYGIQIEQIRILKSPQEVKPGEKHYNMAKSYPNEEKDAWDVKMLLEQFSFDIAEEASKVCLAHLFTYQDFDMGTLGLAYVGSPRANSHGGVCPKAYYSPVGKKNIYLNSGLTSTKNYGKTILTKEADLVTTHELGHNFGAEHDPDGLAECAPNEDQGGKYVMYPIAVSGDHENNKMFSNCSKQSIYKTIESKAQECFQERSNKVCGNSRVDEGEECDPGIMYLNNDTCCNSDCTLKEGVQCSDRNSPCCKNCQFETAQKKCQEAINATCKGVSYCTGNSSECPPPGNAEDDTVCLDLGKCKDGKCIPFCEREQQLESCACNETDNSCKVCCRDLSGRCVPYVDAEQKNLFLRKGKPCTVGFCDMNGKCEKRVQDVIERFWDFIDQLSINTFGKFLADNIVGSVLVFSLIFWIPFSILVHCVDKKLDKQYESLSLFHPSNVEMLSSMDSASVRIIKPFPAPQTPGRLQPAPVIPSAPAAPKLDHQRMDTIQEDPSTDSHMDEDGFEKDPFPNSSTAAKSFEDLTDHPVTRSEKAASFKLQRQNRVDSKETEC
A short description of test [26]: ADAM10 protease inhibitors, dose response, selectivity assay for ADAM17 exosite inhibitor project, biochemical, FRET peptide substrate, recombinant human ADAM10 (AID 743259).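 Note: ADAM10 enzyme cleaving a FRET peptide substrate.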
Test [27] can be described thus: Late stage assay provider results from the probe development effort to identify inhibitors of the Plasmodium falciparum M18 Aspartyl Aminopeptidase (M18AAP): radiolabel-based cell-based dose response assay to identify compounds that inhibit P. falciparum growth in RBCs, Set 2.. It counts as functional.
The target in the next test is Paired box protein Pax-8 (Homo sapiens, UniProt Q06710). Kind of test: inhibitors of PAX8-driven TPO luciferase reporter, dose response, RMG-I cells, cherry-pick (AID 687027).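 Note: luciferase reporter driven by Pax8 target thyroperoxidase promoter measured by SteadyGlo luminescence.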 It counts as functional, cell-based.
Chain of Paired box protein Pax-8 (Q06710 whole entry): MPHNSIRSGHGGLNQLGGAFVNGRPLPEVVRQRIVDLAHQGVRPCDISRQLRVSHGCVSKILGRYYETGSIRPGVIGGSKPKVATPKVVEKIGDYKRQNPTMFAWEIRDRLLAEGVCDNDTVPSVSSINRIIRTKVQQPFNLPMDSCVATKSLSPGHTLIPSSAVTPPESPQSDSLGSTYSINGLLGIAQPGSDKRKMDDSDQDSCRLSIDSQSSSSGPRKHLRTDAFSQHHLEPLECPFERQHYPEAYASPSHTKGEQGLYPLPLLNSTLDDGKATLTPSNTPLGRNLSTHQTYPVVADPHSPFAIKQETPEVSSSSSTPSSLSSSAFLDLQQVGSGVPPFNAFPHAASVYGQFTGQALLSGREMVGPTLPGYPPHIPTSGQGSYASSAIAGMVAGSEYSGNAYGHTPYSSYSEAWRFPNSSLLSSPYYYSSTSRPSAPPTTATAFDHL
A short description of test [28]: A2780 ovarian cancer cell cytotoxicity, dose response, cytotoxicity control, plate reader, dry powder samples (AID 743046). It counts as functional, cell-based.
The nature of test [29]: NIH:OVCAR-3 ovarian cancer cell cytotoxicity, dose response, PAX8 inhibitor project, plate reader, dry powder samples (AID 743044). It counts as functional, cell-based.
In test [30] the target is G-protein coupled receptor 183 (Homo sapiens, UniProt P32249). In words: SAR confirmation of small molecule antagonists of the EBI2 receptor via a luminescent beta-arrestin assa. It counts as functional.
Chain of G-protein coupled receptor 183 (P32249 whole entry): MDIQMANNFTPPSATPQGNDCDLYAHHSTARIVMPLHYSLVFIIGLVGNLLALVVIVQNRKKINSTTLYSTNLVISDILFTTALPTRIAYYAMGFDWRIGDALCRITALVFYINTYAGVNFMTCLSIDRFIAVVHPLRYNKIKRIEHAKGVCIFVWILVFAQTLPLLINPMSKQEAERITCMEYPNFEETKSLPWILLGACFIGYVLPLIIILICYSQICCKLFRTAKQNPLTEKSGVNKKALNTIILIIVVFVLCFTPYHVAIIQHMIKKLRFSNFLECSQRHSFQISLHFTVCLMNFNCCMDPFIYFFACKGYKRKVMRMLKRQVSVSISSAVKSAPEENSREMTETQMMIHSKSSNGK

Broadly, the AC50 is the concentration giving half of the maximal activity seen. On to `O=C(Nc1ccc(Cl)c(Cl)c1)N[C@@H]1CC[C@@H](CCn2cc(C3CCCCC3)nn2)O[C@@H]1CO`, for which the AC50 in test [1] is 46.9 µM (active); in test [2] it was 0.538 µM (active); in [3], 57.9 µM (active); in test [4], 12.4 µM (active); in test [5] it was 17.8 µM (active).
What is called EC50 is the concentration that produces a half-maximal response. Usually IC50 stands for the midpoint of a concentration-inhibition curve. Consider `O=S(=O)(c1ccc(Cl)cc1)c1snnc1-c1ccccc1`, for which the concentration giving a half-maximal response (EC50) is 10.7 µM (active) with HEK293 [6]; 2.39 µM (active) with BJ [7]; 3.73 µM (active) in [8]; 3.53 µM (active) in the test with BJ [10]; 20.7 µM (active) in the test on HT-1080; 3.25 µM (inconclusive) in the test on BJ [16]. Besides, the EC50 in test [17] was 4.96 µM (active); in the test on BJ [19], 0.51 µM (active); at Protein RecA, 9.19 µM (active). For the same compound, the IC50 in the test with HEK293 [9] is 2.17 µM (active); in the test on HEK293 [11], > 20 µM (inactive); in [12] it was > 100 µM (inactive); in test [13], > 100 µM (not active); with HEK293 [14], 6.92 µM (inactive). The CC50 in test [15] was 2.44 µM (active). Further, the concentration at half-maximal activity (AC50) in test [18] is 23.9 µM (active); in [20], 7.86 µM (active).
In the case of `OC[C@@H]1[C@@H](c2ccccc2)C2(CN(CC3CC3)C2)N1Cc1ccc(F)cc1`, the AC50 is 1.98 µM (active) in test [21]; 43.6 µM (active) in test [22]; 0.919 µM (active) in [4]; 1.09 µM (active) in [23]; 1.52 µM (active) in test [24].
As to `COc1ccc(Cn2cc(CN3CCS(=O)(=O)N(Cc4ccc(-c5cccc(Cl)c5)cc4)C(C)C3=O)nn2)cc1` (centres undefined), the IC50 in test [25] and in test [26] was > 69.5 µM (inactive) each time.
Regarding `COc1cccc(CCNc2c3ccccc3nc3ccccc23)c1`, the IC50 in test [27] is 0.6 µM (active).
Turning to `C[C@H](CO)N1C[C@H](C)[C@@H](CN(C)S(=O)(=O)c2ccc(Cl)cc2)OCCCC[C@H](C)Oc2ccc(NS(=O)(=O)c3ccc(F)cc3)cc2C1=O`, the AC50 is 4.45 µM (active) at Paired box protein Pax-8, 29.1 µM (active) in test [28] and 36 µM (active) in test [29].
Turning to `O=C(/C=C/c1ccc(Br)cc1)N1CCN(Cc2ccccc2F)CC1`, the IC50 in [30] is 0.0287 µM (active).
